Values of other authors, collected in patent publication US8377484B1, “Tumor encapsulation for prevention and treatment of metastatic cancer disease” (priority 2004, dated 2013).

How the values were obtained:
[1] = tested on: human breast cancer cells
[2] = tested on: differentiated C2C12 myotubes
[3] = tested on: Cultured primary rat Schwann cells

Compound: O=c1c(-c2ccc(O)cc2)coc2cc(O)ccc12 [daidzein]
- inhibition of cancer cells proliferation [1]: inhibit cancer cells proliferation

Compound: O=c1c(-c2ccc(O)cc2)coc2cc(O)cc(O)c12 [genistein, 5,7,4′-trihydroxyisoflavone]
- promotion of BM competency ([2]; cell cultures of differentiated myotubes): promote BM competency
- promotion of BM competency ([3]; cell cultures of glial Schwann cells): promote BM competency
- inhibition of cancer cells proliferation [1]: inhibit cancer cells proliferation

Compound: EHS Laminin-1: major BM structural protein, heterotrimeric laminin from mouse EHS
- time for laminin-based BM to form on myotube surface ([2]; incubation with 5-10 microg/ml of laminin-1): ≤ 4 h
- concentration able to induce BM assembly ([3]; cultured cells in vitro): 2 mkg/ml
